Reference: US6509356B1, “1-(4-(Substituted alkoxy)benzyl)naphthalene compounds having estrogen inhibitory activity” (Eli Lilly and Company, priority 1997, dated 2003)
Counter-ions that a name gives are not always drawn.

system: MCF-7 breast adenocarcinoma cells; experiment: MCF-7 Proliferation Assay (tritiated thymidine incorporation); format: cell-based; settings: Homo sapiens, MCF7; MCF-7 cells (ATCC HTB 22) in DCC-FBS assay medium, 48 hours with drug, then tritiated thymidine pulse for 4 hours; read-out: Inhibition of MCF7 cell proliferation: ED50
Excerpt: Biological Activity of the Compounds of the Present Invention—MCF-7 Proliferation Assay
The data reported in each of the Examples given above for inhibition of MCF-7 cell proliferation were obtained in an assay which determined each compound's ability to inhibit the proliferation of MCF-7 breast adenocarcinoma cells.
In the assay, these cells (ATCC HTB 22) are maintained in minimal essential medium, phenol red-free, (Sigma, St. Louis, Mo.) supplemented with 10% (V/V) fetal bovine serum (FBS), L-glutamine (2 mM), sodium pyruvate (1 mM), HEPES {(N-[2-hydroxyethyl]piperazine-N′-[2-ethanesulfonic acid] 10 mM}, non-essential amino acids and bovine insulin (1 ug/mL) (maintenance medium). Ten days prior to assay, MCF-7 cells are switched to maintenance medium supplemented with 10% dextran coated charcoal stripped fetal bovine serum (DCC-FBS) assay medium) in place of 10% FBS to deplete internal stores of steroids. MCF-7 cells are removed from maintenance flasks using cell dissociation medium (Ca++/Mg++ free HBSS (phenol red-free) supplemented with 10 mM HEPES and 2 mM EDTA). Cells are washed twice with assay medium and adjusted to 80,000 cells/mL. Approximately […] (8,000 cells) are added to flat-bottom microculture wells (Costar 3596) and incubated at 37° C. in a 5% CO2 humidified incubator for 48 hours to allow for cell adherence and equilibration after transfer. Serial dilutions of drugs or DMSO as a diluent control are prepared in assay medium and […] to triplicate microcultures followed by […] assay medium for a final volume of […]. After an additional 48 hours at 37° C. in a 5% CO2 humidified incubator, microcultures are pulsed with tritiated thymidine (1 uCi/well) for 4 hours. Cultures are terminated by freezing at −70° C. for 24 hours followed by thawing and harvesting of microcultures using a Skatron Semiautomatic Cell Harvester. Samples are counted by liquid scintillation using a Wallac BetaPlace β counter.

SMILES | EC50 [nM]
Oc1ccc(-c2ccc3cc(O)ccc3c2Cc2ccc(OCCCN3CCC4(CCCCC4)CC3)cc2)cc1 [Example 14, hydrochloride] | 30
CCN(CC)CCCOc1ccc(Cc2c(-c3ccc(O)cc3)ccc3cc(O)ccc23)cc1 [Example 2, 6-Hydroxy-2-(4-hydroxyphenyl)-1-[4-(3-(N,N-diethylamino)-propoxy)benzyl]naphthalene hydrochloride] | 0.9
CCCCN(CCCC)CCOc1ccc(Cc2c(-c3ccc(O)cc3)ccc3cc(O)ccc23)cc1 [Example 6, 6-hydroxy-2-(4-hydroxyphenyl)-1-[4-(2-(N,N-di-n-butylamino)-ethoxy)benzyl]naphthalene hydrochloride] | 2
CCN(CCOc1ccc(Cc2c(-c3ccc(O)cc3)ccc3cc(O)ccc23)cc1)C(=O)Nc1cc(Cl)ccc1C [Example 11, N-ethyl-N-[4-(2-(6-hydroxy-2-(4-hydroxyphenyl)naphth-1-yl-methyl)phenoxy)ethyl]-N′-5-chloro-2-methylphenyl urea] | 10
CCCCN(CCCC)CCCOc1ccc(Cc2c(-c3ccc(O)cc3)ccc3cc(O)ccc23)cc1 [Example 7, 6-hydroxy-2-(4-hydroxyphenyl)-1-[4-(3-(N,N-di-n-butylamino)-propoxy)benzyl]naphthalene hydrochloride] | 4
Oc1ccc(-c2ccc3cc(O)ccc3c2Cc2ccc(OCCCNc3cccc4ccccc34)cc2)cc1 [Example 9, 6-hydroxy-2-(4-hydroxyphenyl)-1-[4-(3-(naphth-1-ylamino)propoxy)benzyl]naphthalene hydrochloride] | 9
CC(C)N(CCOc1ccc(Cc2c(-c3ccc(O)cc3)ccc3cc(O)ccc23)cc1)C(C)C [Example 3, 6-hydroxy-2-(4-hydroxyphenyl)-1-[4-(2-(N,N-diisopropyl-amino)ethoxy)benzyl]naphthalene hydrochloride] | 2

The remaining lines, values ahead:

EC50 [nM] | SMILES
40 | O=C1CCCN1CCOc1ccc(Cc2c(-c3ccc(O)cc3)ccc3cc(O)ccc23)cc1 [Example 15, 6-hydroxy-2-(4-hydroxyphenyl)-1-[4-(2-(pyrollidinon-1-yl)ethoxy)benzyl]naphthalene]
20 | CC1CN(CCOc2ccc(Cc3c(-c4ccc(O)cc4)ccc4cc(O)ccc34)cc2)CC(C)O1 (centres unmarked) [Example 13, 6-hydroxy-2-(4-hydroxyphenyl)-1-[4-(2-(2,6-dimethylmorpholin-4-yl)ethoxy)benzyl]naphthalene hydrochloride]
2 | CN1CCCCC1COc1ccc(Cc2c(-c3ccc(O)cc3)ccc3cc(O)ccc23)cc1 (centres unmarked) [Example 4, 6-hydroxy-2-(4-hydroxyphenyl)-1-[4-(N-methylpiperidin-2-yl)-methoxybenzyl]naphthalene hydrochloride]
30 | O=C1CCCN1CCCOc1ccc(Cc2c(-c3ccc(O)cc3)ccc3cc(O)ccc23)cc1 [Example 16, 6-hydroxy-2-(4-hydroxyphenyl)-1-[4-(3-(pyrollidinon-1-yl)propoxy)benzyl]naphthalene]
2 | CN1CCCC(COc2ccc(Cc3c(-c4ccc(O)cc4)ccc4cc(O)ccc34)cc2)C1 (centres unmarked) [Example 5, 6-hydroxy-2-(4-hydroxyphenyl)-1-[4-(N-methylpiperidin-3-yl)-methoxybenzyl]naphthalene hydrochloride]
4 | CC(=O)c1ccc(N2CCN(CCOc3ccc(Cc4c(-c5ccc(O)cc5)ccc5cc(O)ccc45)cc3)CC2)cc1 [Example 8, 6-hydroxy-2-(4-hydroxyphenyl)-1-[4-(2-(4-(4-acetylphenyl)piperazin-1-yl)ethoxy)benzyl]-naphthalene dihydrochloride]
0.5 | CN1CCCC1COc1ccc(Cc2c(-c3ccc(O)cc3)ccc3cc(O)ccc23)cc1 (centres unmarked) [Example 1, 6-Hydroxy-2-(4-hydroxyphenyl)-1-[4-(N-methylpyrrolidin-2-yl)methoxy-benzyl]naphthalene hydrochloride]
